Measurements as given in patent US4296105A, “Derivatives of doxorubicine, their preparation and use” (Institut International de Pathologie Cellulaire et …, priority 1978, dated 1981).

Assays:
[1] = Acute toxicity in mice (50% lethal dose, i.v. injection 2 consecutive days); type: in vivo
leukemia L1210 = experiment: Antitumoral activity in DBA2 mice grafted subcutaneously with leukemia L1210 cells; type: in vivo
Protocol: The tests were made with mice weighing 20 to 22 g grafted subcutaneously with 10^6 cells of leukemia L1210 and treated with daily doses between 5 and 60 mg/kg i.v.
At equitoxic dose, doxorubicine induces 78% ILS, 16% of surviving animals at long term and an average tumoral volume of 24 mm^3 on day 12.

[2] = DBA2 mice 20-22 g, 10^6 L1210 cells s.c., i.v. days 1 and 2, 48 mg/kg a day
[3] = DBA2 mice, L1210 s.c., equitoxic dose

| SMILES | LD50 ([1]; mouse, in vivo, iv) | LD50 relative to doxorubicine (times more than for doxorubicine) ([1]; versus doxorubicine) | increase in life span (ILS) (leukemia L1210; [2]) | surviving animals at long term (leukemia L1210; [2]) | average tumoral volume on day 12 (leukemia L1210; [2]) | increase in life span (ILS) (leukemia L1210; [3]) | surviving animals at long term (leukemia L1210; [3]) | average tumoral volume on day 12 (leukemia L1210; [3]) |
| --- | --- | --- | --- | --- | --- | --- | --- | --- |
| COc1cccc2c1C(=O)c1c(O)c3c(c(O)c1C2=O)C[C@@](O)(C(=O)CO)C[C@@H]3O[C@H]1C[C@H](NC(=O)[C@@H](N)CC(C)C)[C@H](O)[C@H](C)O1 [N-(L-leucyl)doxorubicine] | ~67 mg/kg | 6 times | 131% | 33% | 0.01 mm^3 | – | – | – |
| COc1cccc2c1C(=O)c1c(O)c3c(c(O)c1C2=O)C[C@@](O)(C(=O)CO)C[C@@H]3O[C@H]1C[C@H](N)[C@H](O)[C@H](C)O1 [doxorubicine] | – | – | – | – | – | 78% | 16% | 24 mm^3 |
